“And” between values parts separate entries of the source, which are not always exact repeats. Equal entries are not always repeated. “Also recorded” adds a separate entry of the source.
Key:
[1] = Qualitative solubility in solvents; assay type: physicochemical; conditions: listed solvents
[2] = target: avidin (Gallus gallus, UniProt P02701); conditions: cited from earlier work
[3] = target: Ape1 (Homo sapiens, UniProt P27695); assay: Enzymatic redox assay (EMSA, AP-1 DNA binding); assay type: biochemical; conditions: EMSA, reduced Ape1, oxidized nuclear extracts (Hey-C2 cells), AP-1 DNA probe
Ape1, sequence (P27695 whole entry): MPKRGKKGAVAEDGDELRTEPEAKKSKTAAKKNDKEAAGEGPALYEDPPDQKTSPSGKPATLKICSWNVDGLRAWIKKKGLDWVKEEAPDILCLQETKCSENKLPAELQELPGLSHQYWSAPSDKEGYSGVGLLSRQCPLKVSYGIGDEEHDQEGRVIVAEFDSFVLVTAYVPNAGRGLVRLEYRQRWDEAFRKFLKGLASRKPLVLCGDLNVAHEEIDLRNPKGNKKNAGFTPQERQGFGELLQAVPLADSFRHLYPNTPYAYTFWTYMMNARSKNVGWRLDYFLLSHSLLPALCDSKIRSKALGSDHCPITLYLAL

[4] = system: cells; assay: Growth inhibition assay (MTS); assay type: cell-based; conditions: MTS, compound treatment 24 or 72 h; read-out: Cell Killing (GI50)
Protocol: Growth inhibitory data was also collected for all the compounds tested in the redox assay. Following the procedure of Fishel et al, cells were aliquoted into 96 well plates at a concentration of 2-4,000 cells/well in triplicate and allowed to adhere overnight. Cells were then treated with compound for either 24 or 72 h. 3-(4-5-Dimethylthiazol-2-yl)-5-(3-carboxymethoxyphenyl)-2-(4-sulfophenyl)-2H-tetrazolium salt (MTS) was added to the cells following compound treatment and the cells were incubated for an additional 4 hours at 37° C. After incubation with MTS the plates were measured for absorbance at 490 nm. The values were standardized to wells containing media alone.

avidin, sequence (P02701 25-152, species assumed): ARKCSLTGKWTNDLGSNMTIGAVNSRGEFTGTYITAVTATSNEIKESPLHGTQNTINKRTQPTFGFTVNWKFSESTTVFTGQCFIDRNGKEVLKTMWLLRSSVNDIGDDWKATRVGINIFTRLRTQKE

| Structure (SMILES) | melting point | IC50 [3] | solubility (qualitative) [1] | avidin binding weaker than biotin [2] | solubility (qualitative) ([1]; listed as 93) | GI50 [4] |
| --- | --- | --- | --- | --- | --- | --- |
| O=C(O)CCCC[C@H]1[C@H]2NC(=O)N[C@H]2CS1(=O)=O [Compound 89, 5-((1R,5S,6S)-3,7,7-trioxo-7-thia-2,4-diazabicyclo[3.3.0]oct-6-yl)pentanoic acid] | 255 °C |  | Insoluble in CH2Cl2, acetone, MeOH, water; also recorded: Soluble in DMSO and NaOH aq | approximately 3 fold |  |  |
| CC(C)(C)OC(=O)NCCCCCCNC(=O)CCCC[C@H]1[C@H]2NC(=O)N[C@H]2CS1(=O)=O [Compound 110, N—(N′-tert-butoxycarbonyl-6-aminohexyl)-5-((1R,5S,6S)-3,7,7-trioxo-7-thia-2,4-diazabicyclo[3.3.0]oct-6-yl)pentanamide] | 213 to 215 °C |  | Insoluble: CH2Cl2, acetone, NaOH aq; also recorded: Mildly Soluble MeOH, EtOH; also recorded: Soluble: DMSO |  |  |  |
| C[C@@H]1NC(=O)N[C@@H]1CCCCCC(=O)NCCCCCCNC(=O)OC(C)(C)C [Compound 111, N—(N′-tert-butoxycarbonyl-6-aminohexyl)-6-[(4R,5S)-5-methyl-imidazolidin-2-on-4-yl]hexanamide] |  |  | Insoluble: EtOAc, Et2O, H2O, NaOH aq; also recorded: Soluble: acetone, CH2Cl2 |  |  |  |
| C[C@@H]1NC(=O)N[C@@H]1CCCCCC(=O)O [Desthiobiotin, 6-[(4R,5S)-5-methyl-imidazolidin-2-on-4-yl]hexanoic acid, reference compound] |  |  |  |  | Insoluble: CH2Cl2, H2O, acetone; also recorded: Soluble: NaOH aq |  |

Second part, led by results:

| melting point | IC50 [3] | Structure (SMILES) | solubility (qualitative) [1] | avidin binding weaker than biotin [2] | solubility (qualitative) ([1]; listed as 93) | GI50 [4] |
| --- | --- | --- | --- | --- | --- | --- |
| 156 to 157 °C | 5 µM | O=C(O)CCC1=C(Br)C(=O)c2ccccc2C1=O [Compound 69a, 3-(3-Bromo-1,4-naphthoquinon-2-yl)-propionic acid] |  |  |  | 15 µM |
| 160 °C (dec.) | 3 µM | COCC/C(=C\C1=C(Cl)C(=O)c2ccccc2C1=O)C(=O)O [Compound 62c, (E)-3-(3-chloro-1,4-naphthoquinon-2-yl)-2-methoxyethylpropenoic acid] |  |  |  | 30 µM |
| 119 to 121 °C | 25 µM | CCCC/C(=C\C1=C(C)C(=O)c2ccccc2C1=O)C(=O)O [Compound 35b, (E)-3-(3-methyl-1,4-naphthoquinon-2-yl)-2-butylpropenoic acid] |  |  |  | 40 µM |
| 134 to 136 °C | 3 to 15 µM and 3 µM | COC1=C(OC)C(=O)C(/C=C(\C)C(=O)O)=C(C)C1=O [Compound 10b, (E)-3-(4,5-dimethoxy-2-methyl-3,6-dioxocyclohexa-1,4-dienyl)-2-methylpropenoic acid] |  |  |  | 130 µM |
